From ChEMBL document CHEMBL1201862, “PubChem BioAssay data set” (2004)
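Cultured in 96-well plates, cells were exposed to test compound for 48 hours across five concentrations. GI50: concentration for 50% inhibition of growth.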 Activity calls are given as the source filed them. No stated cut-off is given here; in the data, active = GI50 up to about 1.1 µM and inactive = higher.

Tests used:
Assay in all cases: NCI tumour cell line growth inhibition, 48 h
[1] = test system: IGROV-1
[2] = test system: A549
[3] = test system: COLO 205
[4] = test system: ACHN
[5] = test system: UACC-62
[6] = test system: A498
[7] = test system: NCI-H23
[8] = test system: HCC 2998
[9] = test system: MOLT-4
[10] = test system: SW-620
[11] = test system: SK-MEL-2
[12] = test system: EKVX
[13] = test system: OVCAR-5
[14] = test system: OVCAR-3
[15] = test system: SF-268
[16] = test system: CAKI-1
[17] = test system: HOP-92

Measured: GI50

CC(C)(C)C1CCP(=O)(c2ccccc2)CC1 (stereo not drawn)
inactive: [1] > 100 µM | [2] > 100 µM | [3] > 100 µM | [4] > 100 µM | [5] > 100 µM | [6] > 100 µM | [7] > 100 µM | [8] > 100 µM | [9] > 100 µM | [10] > 100 µM | [11] > 100 µM | [12] > 100 µM | [13] > 100 µM | [14] > 100 µM

COc1ccc(C2ON(c3ccccc3)CC=C2C)cc1 (stereo not drawn)
inactive: [1] > 100 µM | [2] 62.2 µM | [3] 99.3 µM | [4] 79.1 µM | [5] 87.1 µM | [7] 52.7 µM | [8] > 100 µM | [9] 52.4 µM | [10] > 100 µM | [15] > 100 µM | [11] 24 µM | [12] > 100 µM | [13] 34 µM | [14] > 100 µM | [16] 47.8 µM

O=c1cccccc1NCCCNc1cccccc1=O
inactive: [1] > 100 µM | [2] > 100 µM | [3] > 100 µM | [4] > 100 µM | [5] > 100 µM | [7] > 100 µM | [17] > 100 µM | [9] > 100 µM | [10] > 100 µM | [15] > 100 µM | [11] > 100 µM | [12] > 100 µM | [13] > 100 µM | [14] > 100 µM | [16] > 100 µM

CCc1ccccc1NC(=O)/C(CC(=O)c1c(C)[n+]([O-])c2ccccc2[n+]1[O-])=N\NS(=O)(=O)c1ccc(C)cc1
inactive: [1] 26.5 µM | [2] 34.9 µM | [3] 36.8 µM | [4] 57 µM | [5] 18.9 µM | [6] > 100 µM | [7] 35.2 µM | [8] 47.1 µM | [9] 18 µM | [10] 25.9 µM | [15] 25.8 µM | [11] > 100 µM | [12] 46 µM | [13] > 100 µM | [14] 12.1 µM

CCCCN1C(=O)C2c3[nH]c4ccccc4c3C3CCCCC3C2C1=O.CCCCN1C(=O)C2c3[nH]c4ccccc4c3[C@@H]3CCCCC3C2C1=O (stereo not drawn)
inactive: [1] 19.1 µM | [2] 13.9 µM | [3] 26.7 µM | [4] 7.36 µM | [5] 19.1 µM | [7] 16 µM | [8] 8.85 µM | [9] 5.69 µM | [10] 37.8 µM | [15] 17.9 µM | [12] 21.4 µM | [14] 12.4 µM | [16] 6.18 µM

O/N=C(\c1nc2ccc(Cl)cc2nc1O)C(O)c1ccc(Cl)cc1Cl (stereo not drawn)
inactive: [1] > 100 µM | [2] > 100 µM | [3] > 100 µM | [4] > 100 µM | [5] > 100 µM | [7] > 100 µM | [17] > 100 µM | [8] > 100 µM | [9] > 100 µM | [10] > 100 µM | [15] > 100 µM | [13] > 100 µM | [14] > 100 µM | [16] > 100 µM

CC(=O)OC1COC(N2C(=O)C(=O)c3cc(Br)c([N+](=O)[O-])cc32)C(OC(C)=O)C1OC(C)=O (stereo not drawn)
inactive: [1] > 100 µM | [2] > 100 µM | [3] > 100 µM | [4] > 100 µM | [5] 49.3 µM | [7] 55 µM | [17] 34.8 µM | [8] > 100 µM | [9] 35 µM | [10] > 100 µM | [15] 59.2 µM | [11] > 100 µM | [12] 96.4 µM | [13] > 100 µM | [14] 48.2 µM | [16] > 100 µM

COCC(O)CN1C(N)=NC(O)C1O (stereo not drawn)
inactive: [2] > 100 µM | [3] > 100 µM | [4] > 100 µM | [7] > 100 µM | [17] > 100 µM | [8] > 100 µM | [10] > 100 µM | [15] > 100 µM | [11] > 100 µM | [12] > 100 µM | [13] > 100 µM | [16] > 100 µM

C[n+]1cccc(NC(=O)c2ccc(NC(=O)C34CCC(C(=O)Nc5ccc(C(=O)Nc6ccc[n+](C)c6)cc5)(CC3)CC4)cc2)c1
inactive: [1] 13.5 µM | [2] 22.5 µM | [3] > 10 µM | [4] 17.9 µM | [5] > 100 µM | [6] 18 µM | [7] 56.5 µM | [17] > 100 µM | [9] 56.2 µM | [10] 70.1 µM | [15] 16.4 µM | [12] 26.9 µM | [13] > 100 µM

COc1ccc2oc(-c3cc4cc(OC)ccc4o3)cc2c1
inactive: [1] > 100 µM | [2] > 100 µM | [3] > 100 µM | [4] > 100 µM | [5] > 100 µM | [7] > 100 µM | [17] > 100 µM | [8] > 100 µM | [9] > 100 µM | [10] > 100 µM | [15] > 100 µM | [11] > 100 µM | [12] > 100 µM | [13] > 100 µM | [14] > 100 µM | [16] > 100 µM
